{"source": "the supplement of paper PMC10307832", "experiment_in_all_cases": "relative viability (nuclei count vs DMSO), 5 days (fraction); higher = more cells survive", "key": {"[1]": {"compound": "CN(c1ncccc1CNc1nc(Nc2ccc3c(c2)CC(=O)N3)ncc1C(F)(F)F)S(C)(=O)=O + CS(=O)(=O)N1CCN(Cc2cc3nc(-c4cccc5[nH]ncc45)nc(N4CCOCC4)c3s2)CC1 [Pictilisib] (partner 1 µM)", "summary_of_the_method": "(§1)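 Medians of duplicate plates are given as relative viability. That measure is the nuclei count in treated wells divided by the count in vehicle wells. Counts were taken on 4× images of lung cancer cell lines in 1536-well plates, 5 days after pin-tool dosing the day after seeding with one drug alone or a fixed anchor-drug dose plus five library-drug doses (not always all listed) in √10 steps.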"}, "[2]": {"compound": "CN(c1ncccc1CNc1nc(Nc2ccc3c(c2)CC(=O)N3)ncc1C(F)(F)F)S(C)(=O)=O + CC1(C)CCC(c2ccc(Cl)cc2)=C(CN2CCN(c3ccc(C(=O)NS(=O)(=O)c4ccc(N[C@H](CCN5CCOCC5)CSc5ccccc5)c(S(=O)(=O)C(F)(F)F)c4)cc3)CC2)C1 [Navitoclax] (partner 0.5 µM)", "summary_of_the_method": "as §1"}, "[3]": {"compound": "CN(c1ncccc1CNc1nc(Nc2ccc3c(c2)CC(=O)N3)ncc1C(F)(F)F)S(C)(=O)=O + CC(C)C[C@H](NC(=O)[C@H](Cc1ccccc1)NC(=O)c1cnccn1)B(O)O [Bortezomib] (partner 0.002 µM)", "summary_of_the_method": "as §1"}, "[4]": {"compound": "CN(c1ncccc1CNc1nc(Nc2ccc3c(c2)CC(=O)N3)ncc1C(F)(F)F)S(C)(=O)=O + C[C@]1(O)C[C@@H](c2nc(-c3ccc4ccc(-c5ccccc5)nc4c3)c3c(N)nccn32)C1 [Linsitinib] (partner 1 µM)", "summary_of_the_method": "as §1"}, "[5]": {"compound": "CN(c1ncccc1CNc1nc(Nc2ccc3c(c2)CC(=O)N3)ncc1C(F)(F)F)S(C)(=O)=O + O=C(c1cc(Cc2n[nH]c(=O)c3ccccc23)ccc1F)N1CCN(C(=O)C2CC2)CC1 [Olaparib] (partner 8 µM)", "summary_of_the_method": "as §1"}, "[6]": {"compound": "CN(c1ncccc1CNc1nc(Nc2ccc3c(c2)CC(=O)N3)ncc1C(F)(F)F)S(C)(=O)=O + C[C@@H](Oc1cc(-c2cnn(C3CCNCC3)c2)cnc1N)c1c(Cl)ccc(F)c1Cl [Crizotinib] (partner 1 µM)", "summary_of_the_method": "as §1"}, "[7]": {"compound": "CN(c1ncccc1CNc1nc(Nc2ccc3c(c2)CC(=O)N3)ncc1C(F)(F)F)S(C)(=O)=O + COc1cc2c(Oc3ccc(NC(=O)C4(C(=O)Nc5ccc(F)cc5)CC4)cc3F)ccnc2cc1OCCCN1CCOCC1 [Foretinib] (partner 0.25 µM)", "summary_of_the_method": "as §1"}, "[8]": {"compound": "CN(c1ncccc1CNc1nc(Nc2ccc3c(c2)CC(=O)N3)ncc1C(F)(F)F)S(C)(=O)=O + Cc1nc(NC(=O)N2CCC[C@H]2C(N)=O)sc1-c1ccnc(C(C)(C)C(F)(F)F)c1 [Alpelisib] (partner 2 µM)", "summary_of_the_method": "as §1"}, "[9]": {"compound": "CN(c1ncccc1CNc1nc(Nc2ccc3c(c2)CC(=O)N3)ncc1C(F)(F)F)S(C)(=O)=O + CS(=O)(=O)CCNCc1ccc(-c2ccc3ncnc(Nc4ccc(OCc5cccc(F)c5)c(Cl)c4)c3c2)o1 [Lapatinib] (partner 2 µM)", "summary_of_the_method": "as §1"}, "[10]": {"compound": "CN(c1ncccc1CNc1nc(Nc2ccc3c(c2)CC(=O)N3)ncc1C(F)(F)F)S(C)(=O)=O", "summary_of_the_method": "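Lung cancer cell lines were seeded into 1536-well plates, kept overnight at 37 °C and pinned with five library-drug doses (not always all listed) spaced by √10. After 5 days, nuclei were Hoechst-stained, imaged at 4× and counted with MetaXpress. Viability is treated-well nuclei over vehicle-well nuclei, taken as a median across plates. Plates needed control CV below 25% and at least one doubling.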"}}, "data": [{"cell line": "EBC-1", "values": [{"measurement": "relative viability", "setting": "[1]; first compound 0.01 µM", "result": 0.365}, {"measurement": "relative viability", "setting": "[1]; first compound 0.03162 µM", "result": 0.325}, {"measurement": "relative viability", "setting": "[1]; first compound 0.1 µM", "result": 0.391}, {"measurement": "relative viability", "setting": "[1]; first compound 0.3162 µM", "result": 0.36}, {"measurement": "relative viability", "setting": "[1]; first compound 1 µM", "result": 0.305}, {"measurement": "relative viability", "setting": "[2]; first compound 0.01 µM", "result": 0.461}, {"measurement": "relative viability", "setting": "[2]; first compound 0.03162 µM", "result": 0.318}, {"measurement": "relative viability", "setting": "[2]; first compound 0.1 µM", "result": 0.351}, {"measurement": "relative viability", "setting": "[2]; first compound 0.3162 µM", "result": 0.385}, {"measurement": "relative viability", "setting": "[2]; first compound 1 µM", "result": 0.302}, {"measurement": "relative viability", "setting": "[3]; first compound 0.01 µM", "result": 0.596}, {"measurement": "relative viability", "setting": "[3]; first compound 0.03162 µM", "result": 0.5}, {"measurement": "relative viability", "setting": "[3]; first compound 0.1 µM", "result": 0.56}, {"measurement": "relative viability", "setting": "[3]; first compound 0.3162 µM", "result": 0.585}, {"measurement": "relative viability", "setting": "[3]; first compound 1 µM", "result": 0.499}, {"measurement": "relative viability", "setting": "[4]; first compound 0.01 µM", "result": 0.951}, {"measurement": "relative viability", "setting": "[4]; first compound 0.03162 µM", "result": 1.01}, {"measurement": "relative viability", "setting": "[4]; first compound 0.1 µM", "result": 0.889}, {"measurement": "relative viability", "setting": "[4]; first compound 0.3162 µM", "result": 0.91}, {"measurement": "relative viability", "setting": "[4]; first compound 1 µM", "result": 0.788}, {"measurement": "relative viability", "setting": "[5]; first compound 0.01 µM", "result": 0.71}, {"measurement": "relative viability", "setting": "[5]; first compound 0.03162 µM", "result": 0.649}, {"measurement": "relative viability", "setting": "[5]; first compound 0.1 µM", "result": 0.706}, {"measurement": "relative viability", "setting": "[5]; first compound 0.3162 µM", "result": 0.634}, {"measurement": "relative viability", "setting": "[5]; first compound 1 µM", "result": 0.58}, {"measurement": "relative viability", "setting": "[6]; first compound 0.01 µM", "result": 0.204}, {"measurement": "relative viability", "setting": "[6]; first compound 0.03162 µM", "result": 0.195}, {"measurement": "relative viability", "setting": "[6]; first compound 0.1 µM", "result": 0.216}, {"measurement": "relative viability", "setting": "[6]; first compound 0.3162 µM", "result": 0.2}, {"measurement": "relative viability", "setting": "[6]; first compound 1 µM", "result": 0.186}, {"measurement": "relative viability", "setting": "[7]; first compound 0.01 µM", "result": 0.107}, {"measurement": "relative viability", "setting": "[7]; first compound 0.03162 µM", "result": 0.119}, {"measurement": "relative viability", "setting": "[7]; first compound 0.1 µM", "result": 0.102}, {"measurement": "relative viability", "setting": "[7]; first compound 0.3162 µM", "result": 0.105}, {"measurement": "relative viability", "setting": "[7]; first compound 1 µM", "result": 0.0994}, {"measurement": "relative viability", "setting": "[8]; first compound 0.01 µM", "result": 0.869}, {"measurement": "relative viability", "setting": "[8]; first compound 0.03162 µM", "result": 0.885}, {"measurement": "relative viability", "setting": "[8]; first compound 0.1 µM", "result": 0.877}, {"measurement": "relative viability", "setting": "[8]; first compound 0.3162 µM", "result": 0.948}, {"measurement": "relative viability", "setting": "[8]; first compound 1 µM", "result": 0.654}, {"measurement": "relative viability", "setting": "[9]; first compound 0.01 µM", "result": 0.217}, {"measurement": "relative viability", "setting": "[9]; first compound 0.03162 µM", "result": 0.187}, {"measurement": "relative viability", "setting": "[9]; first compound 0.1 µM", "result": 0.248}, {"measurement": "relative viability", "setting": "[9]; first compound 0.3162 µM", "result": 0.204}, {"measurement": "relative viability", "setting": "[9]; first compound 1 µM", "result": 0.2}, {"measurement": "relative viability", "setting": "[10]; 0.01 µM", "result": 1.03}, {"measurement": "relative viability", "setting": "[10]; 0.03162 µM", "result": 1.09}, {"measurement": "relative viability", "setting": "[10]; 0.1 µM", "result": 0.989}, {"measurement": "relative viability", "setting": "[10]; 0.3162 µM", "result": 0.937}, {"measurement": "relative viability", "setting": "[10]; 1 µM", "result": 0.776}]}]}
